From ChEMBL document CHEMBL3390836, “Mannich- and LedererManasse-based analogues of the natural product S-(+)-curcuphenol as cancer proliferation and migration inhibitors” (Medchemcomm, 2012)

What was measured:
Type in all cases: functional
SK-MEL-28 [1] = experiment: Cytotoxicity against human SK-MEL-28 cells assessed as cell growth at 10^-4 M after 48 hrs by SRB assay relative to control; settings: SK-MEL-28, 48 h, read-out: Activity
HT-29 = experiment: Cytotoxicity against human HT-29 cells assessed as cell growth at 10^-6 M after 48 hrs by SRB assay relative to control; settings: HT-29, 48 h, read-out: Activity
NCI-H23 = experiment: Cytotoxicity against human NCI-H23 cells assessed as cell growth at 10^-7 M after 48 hrs by SRB assay relative to control; settings: NCI-H23, 48 h, read-out: Activity
IGROV-1 [2] = experiment: Cytotoxicity against human IGROV1 cells assessed as cell growth at 10^-7 M after 48 hrs by SRB assay relative to control; settings: IGROV-1, 48 h, read-out: Activity
[3] = Cytotoxicity against human HCT116 cells after 48 hrs by SRB assay; settings: HCT-116, 48 h; for CC50: read-out: LC50 (the source's name)
TK-10 = experiment: Cytotoxicity against human TK10 cells assessed as cell growth at 10^-7 M after 48 hrs by SRB assay relative to control; settings: TK-10, 48 h, read-out: Activity
SF-539 = experiment: Cytotoxicity against human SF539 cells assessed as cell growth at 10^-6 M after 48 hrs by SRB assay relative to control; settings: SF-539, 48 h, read-out: Activity
[4] = Cytotoxicity against human OVCAR3 cells assessed as cell growth at 10^-4 M after 48 hrs by SRB assay relative to control; settings: OVCAR-3, 48 h, read-out: Activity
HOP-62 = experiment: Cytotoxicity against human HOP62 cells after 48 hrs by SRB assay; settings: HOP-62, 48 h
SF-295 [5] = experiment: Cytotoxicity against human SF295 cells assessed as cell growth at 10^-7 M after 48 hrs by SRB assay relative to control; settings: SF-295, 48 h, read-out: Activity
MDA-MB-435 = experiment: Cytotoxicity against human MDA-MB-435 cells assessed as cell growth at 10^-6 M after 48 hrs by SRB assay relative to control; settings: MDA-MB-435, 48 h, read-out: Activity
[6] = Cytotoxicity against human UACC62 cells assessed as cell growth at 10^-4 M after 48 hrs by SRB assay relative to control; settings: UACC-62, 48 h, read-out: Activity
CAKI-1 = experiment: Cytotoxicity against human Caki1 cells assessed as cell growth at 10^-4 M after 48 hrs by SRB assay relative to control; settings: CAKI-1, 48 h, read-out: Activity
[7] = Cytotoxicity against human UACC62 cells after 48 hrs by SRB assay; settings: UACC-62, 48 h
MDA-MB-231 = experiment: Cytotoxicity against human MDA-MB-231 cells after 48 hrs by SRB assay; settings: MDA-MB-231, 48 h
IGROV-1 [8] = experiment: Cytotoxicity against human IGROV1 cells assessed as cell growth at 10^-8 M after 48 hrs by SRB assay relative to control; settings: IGROV-1, 48 h, read-out: Activity
SN12C = experiment: Cytotoxicity against human SN12C cells assessed as cell growth at 10^-7 M after 48 hrs by SRB assay relative to control; settings: read-out: Activity
RXF 393 = experiment: Cytotoxicity against human RXF393 cells assessed as cell growth at 10^-4 M after 48 hrs by SRB assay relative to control; settings: RXF 393, 48 h, read-out: Activity
SK-MEL-28 [9] = experiment: Cytotoxicity against human SK-MEL-28 cells assessed as cell growth at 10^-8 M after 48 hrs by SRB assay relative to control; settings: SK-MEL-28, 48 h, read-out: Activity
SW-620 = experiment: Cytotoxicity against human SW620 cells assessed as cell growth at 10^-6 M after 48 hrs by SRB assay relative to control; settings: SW-620, 48 h, read-out: Activity
Malme-3M = experiment: Cytotoxicity against human MALME-3M cells assessed as cell growth at 10^-6 M after 48 hrs by SRB assay relative to control; settings: read-out: Activity
[10] = Cytotoxicity against human OVCAR4 cells assessed as cell growth at 10^-7 M after 48 hrs by SRB assay relative to control; settings: OVCAR-4, 48 h, read-out: Activity
HCC 2998 = experiment: Cytotoxicity against human HCC2998 cells assessed as cell growth at 10^-4 M after 48 hrs by SRB assay relative to control; settings: HCC 2998, 48 h, read-out: Activity
SNB-19 = experiment: Cytotoxicity against human SNB19 cells assessed as cell growth at 10^-6 M after 48 hrs by SRB assay relative to control; settings: SNB-19, 48 h, read-out: Activity
786-0 = experiment: Cytotoxicity against human 786-0 cells assessed as cell growth at 10^-6 M after 48 hrs by SRB assay relative to control; settings: 786-0, 48 h, read-out: Activity
T47D = experiment: Cytotoxicity against human T47D cells assessed as cell growth at 10^-4 M after 48 hrs by SRB assay relative to control; settings: read-out: Activity
[11] = Cytotoxicity against human EKVX cells after 48 hrs by SRB assay
MCF7 = experiment: Cytotoxicity against human MCF7 cells assessed as cell growth at 10^-4 M after 48 hrs by SRB assay relative to control; settings: MCF7, 48 h, read-out: Activity
HL-60(TB) = experiment: Cytotoxicity against human HL-60(TB) cells assessed as cell growth at 10^-8 M after 48 hrs by SRB assay relative to control; settings: HL-60, 48 h, read-out: Activity
[12] = Cytotoxicity against human OVCAR4 cells assessed as cell growth at 10^-4 M after 48 hrs by SRB assay relative to control; settings: OVCAR-4, 48 h, read-out: Activity
[13] = Cytotoxicity against human OVCAR8 cells assessed as cell growth at 10^-4 M after 48 hrs by SRB assay relative to control; settings: OVCAR-8, 48 h, read-out: Activity
[14] = Cytotoxicity against human OVCAR3 cells after 48 hrs by SRB assay; settings: OVCAR-3, 48 h
COLO 205 [15] = experiment: Cytotoxicity against human COLO205 cells assessed as cell growth at 10^-4 M after 48 hrs by SRB assay relative to control; settings: COLO 205, 48 h, read-out: Activity
[16] = Cytotoxicity against human PC3 cells after 48 hrs by SRB assay; settings: PC-3, 48 h
COLO 205 [17] = experiment: Cytotoxicity against human COLO205 cells assessed as cell growth at 10^-8 M after 48 hrs by SRB assay relative to control; settings: COLO 205, 48 h, read-out: Activity
SF-295 [18] = experiment: Cytotoxicity against human SF295 cells assessed as cell growth at 10^-6 M after 48 hrs by SRB assay relative to control; settings: SF-295, 48 h, read-out: Activity

CC(C)=CCC[C@H](C)c1ccc(C)c2c1OCN(CC1CCNCC1)C2
growth at 100 µM (SK-MEL-28 [1]): -98%
growth at 1 µM (HT-29): 103%
growth at 0.1 µM (NCI-H23): 94%
growth at 0.1 µM (IGROV-1 [2]): 107%
GI50 [3]: 7.17 µM
TGI [3]: 21.7 µM
CC50 [3]: 56.3 µM
growth at 0.1 µM (TK-10): 113%
growth at 1 µM (SF-539): 104%
growth at 100 µM [4]: -84%
GI50 (HOP-62): 14.8 µM
LC50 (HOP-62): 55.6 µM
TGI (HOP-62): 28.7 µM
growth at 0.1 µM (SF-295 [5]): 94%
growth at 1 µM (MDA-MB-435): 96%
growth at 100 µM [6]: -92%
growth at 100 µM (CAKI-1): -69%
GI50 [7]: 15.5 µM
LC50 (concentration killing 50% of cells) [7]: 57.6 µM
TGI [7]: 29.9 µM
GI50 (MDA-MB-231): 12.5 µM
LC50 (MDA-MB-231): 64.1 µM
TGI (MDA-MB-231): 28.3 µM
growth at 0.01 µM (IGROV-1 [8]): 101%
growth at 0.1 µM (SN12C): 102%
growth at 100 µM (RXF 393): -93%
growth at 0.01 µM (SK-MEL-28 [9]): 107%
growth at 1 µM (SW-620): 103%
growth at 1 µM (Malme-3M): 95%
growth at 0.1 µM [10]: 102%
growth at 100 µM (HCC 2998): -94%
growth at 1 µM (SNB-19): 94%
growth at 1 µM (786-0): 99%
growth at 100 µM (T47D): -70%
GI50 [11]: 20.7 µM
LC50 [11]: > 100 µM
TGI [11]: 66.9 µM
growth at 100 µM (MCF7): -95%
growth at 0.01 µM (HL-60(TB)): 96%
growth at 100 µM [12]: -91%
growth at 100 µM [13]: -85%
GI50 [14]: 15.6 µM
LC50 [14]: 62.1 µM
TGI [14]: 31.1 µM
growth at 100 µM (COLO 205 [15]): -89%
GI50 [16]: 16.5 µM
LC50 [16]: > 100 µM
TGI [16]: 42.1 µM
growth at 0.01 µM (COLO 205 [17]): 109%
growth at 1 µM (SF-295 [18]): 87%

CC(C)=CCC[C@H](C)c1ccc(C)c(CNCC2CCNCC2)c1O
growth at 100 µM (SK-MEL-28 [1]): -91%
growth at 1 µM (HT-29): 113%
growth at 0.1 µM (NCI-H23): 94%
growth at 0.1 µM (IGROV-1 [2]): 97%
GI50 [3]: 5.08 µM
TGI [3]: 12.4 µM
CC50 [3]: > 25 µM
growth at 0.1 µM (TK-10): 92%
growth at 1 µM (SF-539): 92%
growth at 100 µM [4]: 3%
GI50 (HOP-62): 4.12 µM
LC50 (HOP-62): 17.6 µM
TGI (HOP-62): 8.5 µM
growth at 0.1 µM (SF-295 [5]): 91%
growth at 1 µM (MDA-MB-435): 92%
growth at 100 µM [6]: -81%
growth at 100 µM (CAKI-1): -29%
GI50 [7]: 4.24 µM
LC50 (concentration killing 50% of cells) [7]: 16.4 µM
TGI [7]: 8.32 µM
GI50 (MDA-MB-231): 3.48 µM
LC50 (MDA-MB-231): 19.3 µM
TGI (MDA-MB-231): 8.19 µM
growth at 0.01 µM (IGROV-1 [8]): 102%
growth at 0.1 µM (SN12C): 91%
growth at 100 µM (RXF 393): -24%
growth at 0.01 µM (SK-MEL-28 [9]): 102%
growth at 1 µM (SW-620): 99%
growth at 1 µM (Malme-3M): 84%
growth at 0.1 µM [10]: 103%
growth at 100 µM (HCC 2998): -94%
growth at 1 µM (SNB-19): 93%
growth at 1 µM (786-0): 85%
growth at 100 µM (T47D): -73%
GI50 [11]: 8.56 µM
LC50 [11]: > 25 µM
TGI [11]: > 25 µM
growth at 100 µM (MCF7): -89%
growth at 0.01 µM (HL-60(TB)): 86%
growth at 100 µM [12]: 44%
growth at 100 µM [13]: -60%
GI50 [14]: 8.44 µM
LC50 [14]: > 25 µM
TGI [14]: > 25 µM
growth at 100 µM (COLO 205 [15]): -93%
GI50 [16]: 6.88 µM
LC50 [16]: > 25 µM
TGI [16]: > 25 µM
growth at 0.01 µM (COLO 205 [17]): 106%
growth at 1 µM (SF-295 [18]): 86%
